Columns and labels:
LBD of LXRα = biological target: T1, LBD of LXRα (Homo sapiens, UniProt Q13133); experiment: LanthaScreen TR-FRET LXRα coactivator assay (LXR binding assay); assay type: biochemical; conditions: agonist; average values; read-out: LXRα EC50
T1 construct: after addition of LXRα/β-LBD to the derivatives; purchased Thermo Fisher Scientific
T1 sequence (Q13133 209-447 limits assumed): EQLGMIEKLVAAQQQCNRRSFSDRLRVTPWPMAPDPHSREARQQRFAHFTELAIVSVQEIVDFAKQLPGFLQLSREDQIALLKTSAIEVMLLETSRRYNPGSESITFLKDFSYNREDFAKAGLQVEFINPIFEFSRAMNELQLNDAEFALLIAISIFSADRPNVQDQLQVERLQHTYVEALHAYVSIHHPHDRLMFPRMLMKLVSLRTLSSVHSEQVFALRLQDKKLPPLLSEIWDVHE
Experimental: (§1) Binding assays of graded concentrations of vitamin D3 or lumisterol hydroxyderivatives to LXRα/β were performed using the LanthaScreen TR-FRET LXRα/β Coactivator kit (Thermo Fisher Scientific, Inc., Waltham, MA) following the manufacture’s protocol. Briefly, after addition of LXRα/β-LBD to the derivatives, a mixture of peptide (Fluorescein-TRAP220/DRIP-2 for LXRα or Fluorescein-D22 for LXRβ) and antibody (Tb-anti-GST) was added to the reaction followed by incubation in room temperature for 2 h. TR-FRET ratio was calculated by dividing the emission at 520 nm by the emission at 495 nm using Synergy neo2 (BioTek, Winooski, VT).

LBD of LXRβ = biological target: T2, LBD of LXRβ (Homo sapiens, UniProt P55055); experiment: LanthaScreen TR-FRET LXRβ coactivator assay (LXR binding assay); assay type: biochemical; conditions: agonist; average values; read-out: LXRβ EC50
T2 construct: purchased Thermo Fisher Scientific
T2 sequence (P55055 222-460 limits assumed): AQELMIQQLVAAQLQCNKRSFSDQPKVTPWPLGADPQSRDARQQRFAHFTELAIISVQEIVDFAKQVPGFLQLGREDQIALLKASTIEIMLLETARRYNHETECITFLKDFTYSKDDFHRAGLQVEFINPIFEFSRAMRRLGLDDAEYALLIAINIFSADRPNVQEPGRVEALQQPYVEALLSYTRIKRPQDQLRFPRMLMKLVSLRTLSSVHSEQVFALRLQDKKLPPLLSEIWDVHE
Experimental: as §1

ABCA1 = experiment: qPCR of ABCA1 in HaCaT keratinocytes; assay type: cell-based, human; conditions: 10^–7 M
Experimental: HaCaT keratinocytes were cultured as described previously. For RNA isolation the cells were maintained in TPP tissue culture petri dishes (Ø60 mm, 22.1 cm^2) in DMEM containing 10% cFBC to reach semi-confluence and then exposed to 10^–7 M compounds or a corresponding concentration of ethanol solvent.
RNA isolated from either fibroblasts, HaCaT cells or brain was submitted for cDNA synthesis (High Capacity cDNA Reverse Transcription Kit with RNase Inhibitor, Applied Biosystems) following the manufacturers’ protocols. RT-PCR was carried out using Cyber green, in triplicates; as previously described. Approximately, 750 ng of cDNA was used for PCR reactions. GAPDH and CIC-B were used as internal controls. Primer sequences are listed in Supplementary Table 27. Data were analyzed using GraphPad Prism statistical software one way ANOVA or t-test, where appropriate; *p < 0.05; **p < 0.01; ***p < 0.001.

LXRα = biological target: T3, LXRα (Homo sapiens, UniProt Q13133); experiment: Ligand induced translocation of LXRα to the nucleus, immunofluorescence in HaCaT; assay type: cell-based; conditions: 10^−7 M, 24 h
T3 construct: endogenous in cells; host or cells: HaCaT keratinocytes
T3 sequence (Q13133 1-447): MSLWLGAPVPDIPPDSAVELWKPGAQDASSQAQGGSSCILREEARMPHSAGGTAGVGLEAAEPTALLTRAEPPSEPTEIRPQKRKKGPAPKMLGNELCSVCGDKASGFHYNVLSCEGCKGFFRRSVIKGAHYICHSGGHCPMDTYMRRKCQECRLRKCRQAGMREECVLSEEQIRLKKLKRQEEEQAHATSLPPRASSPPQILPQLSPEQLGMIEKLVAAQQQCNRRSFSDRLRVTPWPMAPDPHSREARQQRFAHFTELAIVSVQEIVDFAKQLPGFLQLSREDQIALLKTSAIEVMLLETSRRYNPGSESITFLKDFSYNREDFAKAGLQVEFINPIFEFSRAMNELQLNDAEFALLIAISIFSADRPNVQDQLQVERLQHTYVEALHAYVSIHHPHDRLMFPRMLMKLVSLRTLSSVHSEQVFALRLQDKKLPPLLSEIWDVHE
Experimental: (§2) HaCaT cells were plated in DMEM plus 5% cFBS either on a sterile glass cover slip placed in a well of a 6-well plates for immunofluorescence (IF) assays or TPP Petri dishes for image-stream flow cytometry, and treated with 10^–7 M D3- or L3-hydroxyderivatives or 0.1% ethanol (vehicle) as a negative control was added to each well, and the cells were incubated for 12 or 24 h at 37 °C with 5% CO2. For IF the cells were fixed in 4% paraformaldehyde for 15 min, incubated in 0.5% Triton X-100 in phosphate-buffered saline (PBS) for 5 min, and washed 3 times in PBS. After blocking with 2% bovine serum albumin (BSA) in PBS for 1 h at room temperature, the cells were treated with an anti-LXRα antibody (Novus Biologicals, LLC, Centennial, CO) at 1:200 in PBS supplemented with 2% BSA overnight in 4 °C. After washing the slides were incubated with a mouse anti-rabbit IgG-FITC (Santa Cruz Biotechnology, Inc, Dallas, TX) at 1:200 dilution for 1.5 h at 37 °C. After washing the slides were mounted using propidium iodide (PI) (Vector Labs, Burlingame, California) as a nuclear counterstain. The slides were examined using a KEYENCE America BZ-X710 Fluorescence Microscope (Itasca, IL). The images were subsequently analyzed using the JACoP plugin for colocalization analysis with ImageJ[74]. Five separate high-power field (40×) images were converted to grayscale and analyzed for each condition. Manders’ coefficient (M1), calculated using a preset threshold, was used to quantify the degree of colocalization between PI and LXRα with 0 representing no colocalization, and 1 representing perfect colocalization.

LXRα/β = experiment: Ligand induced translocation of LXRα/β to the nucleus, imaging flow cytometry in HaCaT; assay type: cell-based, human; conditions: 10^–7 M, 12 h
Experimental: as §2
For Image Stream II (Amnis, Seattle, WA, USA) cytometer analyses, HaCaT cells were detached and processed as previously described. The cells were fixed with paraformaldehyde and permeabilized in methanol containing buffer[78],[79] and Hoechst stain (r37165, ThermoFisher) and rabbit antibodies to LXRα/β (sc 377260, AF 647, SantaCruz) or VDR (sc-13133, AF 488, SantaCruz) as described previously. Data were analyzed using IDEAS software (Amnis, Seattle, WA, USA).

VDR = biological target: T4, VDR (Homo sapiens, UniProt P11473); experiment: Translocation of VDR to the nucleus, imaging flow cytometry in HaCaT; assay type: cell-based; conditions: 10^–7 M, 12 h
T4 construct: endogenous in cells; host or cells: HaCaT keratinocytes
T4 sequence (P11473 1-427): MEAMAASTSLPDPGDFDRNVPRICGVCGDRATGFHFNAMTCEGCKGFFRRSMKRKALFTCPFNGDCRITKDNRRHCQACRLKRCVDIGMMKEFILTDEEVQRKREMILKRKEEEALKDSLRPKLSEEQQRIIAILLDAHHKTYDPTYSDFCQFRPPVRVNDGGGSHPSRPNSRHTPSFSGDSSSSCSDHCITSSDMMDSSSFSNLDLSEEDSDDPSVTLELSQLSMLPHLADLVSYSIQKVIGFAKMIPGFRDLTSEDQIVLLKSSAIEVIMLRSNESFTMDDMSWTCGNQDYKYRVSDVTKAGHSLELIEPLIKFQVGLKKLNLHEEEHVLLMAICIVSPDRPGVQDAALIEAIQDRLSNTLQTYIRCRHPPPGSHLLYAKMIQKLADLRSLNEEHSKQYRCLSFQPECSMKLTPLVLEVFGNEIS

[1] = system: LXR-response element (LXRE)-driven reporter in CHO cells; experiment: LXRE-driven luciferase reporter assay in CHO cells; assay type: cell-based; conditions: 10^–7 M, CHO cells
Experimental: The effects of vitamin D3 and L3 hydroxyderivatives were tested on the LXRE transcriptional activity using pGreenFire1-LXRE-in-ApoE Lentivirus (System Biosciences, Palo Alto, CA). This plasmid was transduced in CHO and HaCaT cells following the manufacture’s protocol and the cells used as a stable LXRE expressed tool. Briefly, the virus was transduced into the cells using TransDux MAX Lentivirus Transduction Enhancer (System Biosciences, Palo Alto, CA) and screened to select the transduced cells using puromycin. The transduced cells were treated with the compounds for 24 h in media containing 5% cFBS (charcoal-treated fetal bovine serum) and the luminescence was read by ONE-Glo Luciferase Assay System (Promega, Madison, WI) using Cytation 5 (BioTek, Winooski, VT).

Row | SMILES | EC50 (LBD of LXRα) [µM] | EC50 (LBD of LXRβ) [µM] | ABCA1 RNA expression (qPCR) (ABCA1) | translocation of LXRα to the nucleus (immunofluorescence, Manders' coefficient) (LXRα) | translocation of LXRα/β from the cytoplasm to the nucleus (LXRα/β) | translocation of VDR from the cytoplasm to the nucleus (VDR) | LXRE luciferase (transcriptional) activity [1]
1 | C=C1CC[C@H](O)C/C1=C/C=C1\CCC[C@]2(C)[C@@H]([C@H](C)CCCC(C)(C)O)CC[C@@H]12 [25(OH)D3, reference compound] | 0.011 | 3.8 | stimulation | induced translocation | increased translocation | increased translocation | –
2 | C=C1CCC(O)CC1=CC=C1CCCC2(C)C1CCC2(O)C(C)O (stereo not drawn) [17,20(OH)2pD] | 30 | 2.6 | – | – | – | – | weakest stimulant
